Patent publication US20130150399A1, “INHIBITORS OF THE UNFOLDED PROTEIN RESPONSE AND METHODS FOR THEIR USE” (The Board of Trustees of the Leland Stanford Junior …, priority 2006, published 2013)

Columns and labels:
[1] = Potential toxicities of irestatin 9389, increasing i.p. doses; assay type: in vivo
Description: Female 4-6 week-old SCID (B6.CB 17) mice supplied by Stanford University Animal Facility were housed in the same facility (American Association of Laboratory Animal Care-approved) with 12 hour light cycles. Food and water were provided ad libitum. All experiments were approved by the institutional care and use committee. The potential toxicities of irestatin 9389 were examined in SCID mice injected i.p. once daily over 4 consecutive days with increasing doses of irestatin 9389 or vehicle control. […] For xenografts, 2×10^6 HT1080 fibrosarcoma cells were resuspended in 50-75 μl PBS and injected s.c. in the dorsal flanks of host mice. When the implanted tumors reached a mean volume of ˜150 mm^3, mice were randomly assigned into different treatment groups. Mice were dosed by i.p. bolus injection with either vehicle (50% DMSO, 20% cremophor EL, 30% ethanol) or irestatin 9389 (50 mg/kg). Tumors (6-8 per group) were measured every 2-4 days with calipers. Tumor volume was calculated using the formula [(W^2×L) 0.52] where W=width and L=length.

RPMI 8226 myeloma cells = test: Cell proliferation assay, RPMI 8226; assay type: cell-based, human; conditions: dose-dependent
caspase-3 = test: Cleavage of caspase-3, HT1080 cells; assay type: cell-based, human; conditions: 2.5 μM
Description: Cells (2×10^6) were cultured in 10-cm dishes, collected using a cell scraper at 4° C., and lysed by addition of 150 μl cell lysis buffer [50 mM Tris pH 7.4, 150 mM NaCl, 10% glycerol, 0.5% Triton X-100. 0.5% NP-40, 2 mM Na3VO4, 20 mM beta-glycerophosphate, 10 mM NaF, 1 mM DTT, 1 mM PMSF). Lysates were centrifuged for 5 min at 10,000×g, and proteins (˜40 μg) were resolved by SDS-PAGE followed by semi-dry transfer to nitrocellulose membranes. Membranes were blocked in TBS-5% milk supplemented with 0.1% Tween-20. The blots were then probed overnight with relevant antibodies, washed, and incubated for 2 hours with species-specific secondary antibodies conjugated to horseradish peroxidase. After washing in block solution, immunoreactive material was detected by enhanced chemiluminescence (SuperSignal West Dura Extended, Pierce, Inc., Rockville, Ill.).
A. Effect of irestatin 9389 on PERK and ATF6 pathways. […] Protein lysates were analyzed by Western blot analysis using antisera specific for ATF6 (top), CHOP/GADD153 (middle) or actin (bottom). […] Cells were harvested, counted, and allowed to grow under normal culture conditions for 11-12 days. […] D. Quantification of clonogenic survival assay. […] F. Quantification of TUNEL-positive cells. […] Cells were harvested at the indicated times and counted by hemocytometer. Values represent the mean calculated from triplicate experiments+/−SEM. […]

Cc1csc(NC(=O)CSc2nc3c(c(C(F)(F)F)c2C#N)CCC3)n1 [Compound 9389]
toxicity ([1]; dosing regimen of 50-60 mg/kg i.p.): without apparent toxicity
dosing regimen of 50-60 mg/kg as share of the LD50 value ([1]; female, SCID (B6.CB 17), mouse, in vivo, 4 days): 75%
growth of RPMI 8226 (RPMI 8226 myeloma cells): strongly inhibited the growth
cleavage of caspase-3 (caspase-3; 36 hours of hypoxia): stimulated cleavage of caspase-3
caspase-3 processing (caspase-3; normal oxygen conditions): no effect on caspase-3 processing
